Experimental data taken from paper PMC12236907, “A Natural Depsipeptide Antibiotic that Targets the E site of the Bacterial Ribosome” (Research Square, 2025).
Entries after “also recorded” stand apart in the source; their conditions may differ. Where a SMILES comes first, the peptide text is derived from it. Bridges are numbered along the chain shown (N, C = ends). [ ]: non-standard residue; d: D form. dOrn = NCCC[C@@H](N)C(=O)O

Columns and labels:
[1] = tested on: E. coli S30 extract transcription-translation system; assay: Inhibition of protein synthesis in E. coli cell-free transcription-translation system; type: biochemical; conditions: E. coli S30 lysate, pBESTluc plasmid, 0.05 to 100 μM, 1 h at 37°C, luminescence; mean ±SD of three technical replicates
Experimental: The impact of MKM-A and MKM-E on in vitro protein synthesis was evaluated using the E. coli S30 extract transcription-translation system (Promega) following the manufacturer’s protocol. The pBESTluc plasmid DNA was utilized as the template to produce firefly luciferase. MKM analogues were tested across a concentration range of 0.05 to 100 μM. The reactions were incubated for one hour at 37°C. Luminescence was then measured in opaque 96-well plates using a Synergy Microplate Reader (Biotek). The IC50 values, indicating the concentration at which MKMs inhibited protein synthesis by 50%, were determined using GraphPad Prism 10 software.

bacterial ribosome = assay: Toeprinting analysis of MKM-induced ribosome stalling; type: biochemical, E. coli
Experimental: Toeprinting analysis was carried out in the E. coli in vitro transcription-translation system assembled from the purified components (PURExpress, NEB). Toeprinting was carried out using either ^32P-radiolabeled or fluorescently labeled reverse transcription primers, following the procedures described previously[21],[26],[27].
Reactions either contained no antibiotic or were supplemented with 50 μM retapamulin or varying concentrations of MKM. The inhibitors of aminoacyl-tRNA synthetases (mupirocin, Gly-AMS (MedChemExpress: Cat. No.: HY-108940), or Arg-AMS (MedChemExpress, Cat. No.: HY-112862)) were added to the final concentrations of 50 μM to stall translation at downstream “catch codons” (Ile, Gly, or Arg, respectively). The gltX template was prepared by amplifying the gltX gene from E. coli BW25113 genomic DNA using the primers T7_gltX_F and gltX_NV1_R (Supplementary Table 6). The yrbA_wt template and its derivatives containing 3-Ser or 3-Thr codons were generated by four-primer PCRs using the primers T7_IR_AUG_F, yrbA_wt_F / yrbA_TTT_F / yrbA_SSS_F, yrbA_wt_R/yrbA_Ile_catch_R, and posT-NV1_R (Supplementary Table 6).
Fluorescently labeled reactions were carried out on the ermBL toeprint mRNA template. The template was generated by PCR of two overlapping 77-nt- and 78-nt-long primers T7_ermBL_F and ermBL_UGA_R (Supplementary Table 6). Reactions were assembled in a 6 μl volume with 30 ng of the ermBL mRNA template and incubated for 15 min at 37 °C. Reverse transcription was carried out using AMV RT and primer NV*1-Alexa 647 (Supplementary Table 6) for 20 min at 37 °C. Reactions were terminated with 1 μl of 5 M NaOH, neutralized with 0.7 μl of 25% HCl, and nucleotide removal was performed with the QIAquick Nucleotide Removal Kit (Qiagen). The samples were dried under vacuum for 2 hours at 60 °C for subsequent gel electrophoresis. The 6% acrylamide gels were scanned on a Typhoon scanner (GE Healthcare). The sequences of all toeprinting templates used in the study can be found in Supplementary Table 7.

Klebsiella pneumoniae = assay: Antimicrobial activity, Klebsiella pneumoniae; type: cell-based
mycobacteria = assay: Antimicrobial activity, mycobacteria; type: cell-based; conditions: Middlebrook 7H9 + 10% OADC + 0.05% Tween-80
K. pneumoniae C1559 = assay: Ex vivo efficacy in human blood; type: cell-based, Klebsiella pneumoniae; conditions: K. pneumoniae C1559, 10^5 cfu/ml, 5×MIC of MKM, six hours, 37°C; three biological experiments
Experimental: Human blood was procured from BioIVT (New York, USA). […] CFUs were determined by serial dilution and cultivation on agar.

[2] = tested on: K. pneumoniae ATCC 33495 and C1559; assay: C. elegans – K. pneumoniae in vivo antibiotic activity assay (survival); design: species or system K. pneumoniae in Caenorhabditis elegans
Experimental: A C. elegans double mutant strain, AU37 (glp-4(bn2);sek-1(km4)), was used for this assay due to its enhanced pathogen infection sensitivity and temperature-sensitive sterility. The infection protocol was carried out as previously described, with slight modifications to accommodate our experimental conditions. Standard C. elegans media and protocols were used for the maintenance and growth of worms. To summarize, eggs were collected from gravid adult worms by bleaching and incubated on solid agar plates at 25 °C for 48 hours, until early adulthood. Worms were thoroughly washed with M9 buffer and transferred onto LB agar plates containing lawns of infective K. pneumoniae and incubated for another 24 hours. Worms were then washed from plates and resuspended in M9 to an approximate 2 worm per microlitre concentration. A survival assay was conducted in a 96-well plate with experimental wells containing 15 μl of worms, 80 μl S-basal (5.85 g NaCl, 1 g K2HPO4, 6 g KH2PO4, 1 ml cholesterol (5 mg/ml in ethanol), H2O to 1 litre. Sterilize by autoclaving), and 5 μl of test compound. Plates were sealed with a porous film and incubated at 25°C for a total of 7 days. The number of dead worms were counted every 24 hours to generate a Kaplan-Meier survival curve.

C[C@@H](O)[C@@H]1NC(=O)[C@@H](CCCNC(=N)N)NC(=O)[C@@H](CCCNC(=N)N)NC(=O)[C@@H](CC(N)=O)NC(=O)[C@@H](NC(=O)[C@@H](Cc2ccccc2)NC(=O)[C@@H](CCCN)NC(=O)[C@H](N)CCCNC(=N)N)[C@@H](C)OC(=O)[C@H](Cc2c[nH]cn2)NC1=O [MKM, manikomycin A] (H-[dR][dOrn][dF]T[dN][dR][dR]TH; ester 4-C)
IC50 [1]: 600 nM
ribosome stalling, ermBL mRNA (bacterial ribosome; E. coli in vitro protein synthesis system, ermBL template): ribosomes stall primarily on the third codon; also recorded: stalled the ribosome on the third codon
ribosome stalling, gltX template (bacterial ribosome; gltX template, Gly-AMS in all reactions): arrested some ribosomes at the start codon, a notable fraction of them became arrested at several specific sites along the mRNA
ribosome stalling, yrbA-SSS template (bacterial ribosome; yrbA with three Ser codons after start codon, high concentrations of MKM): no ribosomes pass downstream of the start codon
ribosome stalling, yrbA-TTT template (bacterial ribosome; yrbA with three Thr codons after start codon): a fraction of ribosomes was able to move through the Thr codons
antimicrobial activity (Klebsiella pneumoniae): selective antimicrobial activity
growth inhibition (mycobacteria): readily inhibits the growth
bacterial eradication in human blood (K. pneumoniae C1559): complete eradication
survival benefit in C. elegans (in words) ([2]; MKM 64 μg/ml or polymyxin B 25 μg/ml, 6 days, vs DMSO, Log-rank (Mantel–Cox) test): significantly improved survival; also recorded: markedly improved survival
nematodes alive by day 6 ([2]; MKM 64 μg/ml, both infection models (ATCC 33495 and C1559), DMSO ~10% (ATCC 33495), ~30% (C1559), n > 60 worms per group): 55–60%
